In patent publication US11453697B1, “Cyclic di-nucleotide compounds as sting agonists” (Merck Sharp & Dohme Corp., priority 2015, dated 2022):
Where two headings read alike, the source gives them in different places.

Experiments:
full-length WT STING = full-length WT STING (Homo sapiens (Human), UniProt Q86WV6, H232R); test: 3H-cGAMP filtration binding assay (WT STING)
Experimental: The ability of compounds to bind STING is quantified by their ability to compete with tritiated cGAMP ligand for human STING receptor membrane using a radioactive filter-binding assay.
The basic WT STING filtration assay protocol is as follows:
Tritium levels for each reaction well were then measured using a PerkinElmer TopCount plate reader.
After normalization to controls, the percent activity for each compound concentration was calculated by measuring the amount of remaining radioactivity. The plot of percent activity versus the log of compound concentration was fit with a 4-parameter dose response equation to calculate EC50 values.

[1] = system: IFN-β secretion in THP1 cells; test: IFN-β secretion in THP1 cell culture (5 h); assay type: cell-based, human
Method in brief: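 THP1 cells incubated with compound for 5 h at 37 °C, 5% CO2, and secreted IFN-β in supernatant quantified by AlphaLISA. Percent effect normalised to 30 uM cGAMP positive control and 0.3% DMSO. EC50 from 4-parameter fit.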

full-length HAQ STING = full-length HAQ STING (Homo sapiens (Human), UniProt Q86WV6, G230A/H232R/R293Q/R71H); test: 3H-cGAMP filtration binding assay (HAQ STING); details: competition with tritiated cGAMP, HAQ STING membrane; read-out: EC50 (nM), 3H-cGAMP filtration binding assay for HAQ STING
Sequence of full-length HAQ STING (Q86WV6 other isoform, or with tags, fused parts or gaps, stated change not applied): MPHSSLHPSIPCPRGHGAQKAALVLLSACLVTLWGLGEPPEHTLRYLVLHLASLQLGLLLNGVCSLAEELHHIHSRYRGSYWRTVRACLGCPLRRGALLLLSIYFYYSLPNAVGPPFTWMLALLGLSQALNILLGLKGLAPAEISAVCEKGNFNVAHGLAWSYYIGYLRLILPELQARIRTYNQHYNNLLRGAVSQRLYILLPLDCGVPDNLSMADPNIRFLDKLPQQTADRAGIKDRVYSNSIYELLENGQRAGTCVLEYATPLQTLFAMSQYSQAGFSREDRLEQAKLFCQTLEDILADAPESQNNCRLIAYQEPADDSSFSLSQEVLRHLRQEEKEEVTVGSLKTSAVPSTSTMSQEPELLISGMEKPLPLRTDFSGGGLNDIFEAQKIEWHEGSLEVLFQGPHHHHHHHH
Method in brief: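 Competition binding of compounds against 8 nM [3H]cGAMP working stock on Hi-Five cell membranes overexpressing full-length HAQ STING; compound and membrane preincubated 60 min at RT before ligand addition. Bound radioactivity read by filtration and scintillation counting; percent activity normalized to controls, EC50 from 4-parameter fit.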

[2] = read-out: % Inh @ 20 uM, 3H-cGAMP filtration binding assay for WT STING
[3] = competition with tritiated cGAMP, WT STING membrane; read-out: EC50 (nM), 3H-cGAMP filtration binding assay for WT STING
[4] = IFN-β secretion in THP1 cell culture, 5 h, compound at 30 μM, percent activation relative to 2′3′-cGAMP

Sequence of full-length WT STING (Q86WV6 other isoform, or with tags, fused parts or gaps H232R (already in the parent)): as the sequence (Q86WV6 other isoform, or with tags, fused parts or gaps, stated change not applied) above, with H71R, A230G, Q293R counted along it

Compound	EC50 (full-length WT STING; [3]) [nM]	% Effect at 30 μM relative to 2′3′-cGAMP [1] [%]	EC50 (full-length HAQ STING) [nM]	% Effect at 30 μM relative to 2′3′-cGAMP [1, 4] [%]	further results
Nc1nc2c(ncn2[C@@H]2O[C@@H]3COP(O)(=S)O[C@H]4[C@H](F)[C@H](n5cnc6c(N)ncnc65)O[C@@H]4COP(O)(=S)O[C@@H]2C3(F)F)c(=O)[nH]1 (single isomer, unassigned) [Example 155]	–	139	–	–	EC50 (full-length WT STING; EC50 (nM), 3H-cGAMP filtration binding assay for WT STING, competition with tritiated cGAMP, WT STING membrane): < 1 nM
Nc1nc2c(ncn2[C@@H]2O[C@@H]3COP(O)(=S)O[C@H]4[C@H](F)[C@H](n5cnc6c(N)ncnc65)O[C@@H]4COP(O)(=S)O[C@@H]2C3(F)F)c(=O)[nH]1 (single isomer, unassigned) [Example 156]	–	119	–	–	EC50 (full-length WT STING; read-out: EC50 (nM), 3H-cGAMP filtration binding assay for WT STING; competition with tritiated cGAMP, WT STING membrane): < 1 nM
Nc1cc2c(ncn2[C@@H]2O[C@@H]3COP(=O)(S)O[C@H]4[C@H](F)[C@H](n5ccc6c(N)ncnc65)O[C@@H]4COP(=O)(S)O[C@@H]2[C@@H]3F)c(=O)[nH]1 (single isomer, unassigned) [Example 229]	–	–	–	–	inhibition at 20 µM (full-length WT STING; [2]): 31%
Nc1nc2c(ncn2[C@@H]2O[C@@H]3COP(O)(=S)O[C@H]4[C@@H](O)[C@H](n5cnc6c(N)ncnc65)O[C@@H]4COP(=O)(O)O[C@@H]2[C@@H]3O)c(=O)[nH]1 (stereo partly drawn) [Example 38, 2-amino-9-[(5R,7R,8R,12aR,14R,15R,15aS,16R)-14-(6-amino-9H-purin-9-yl)-2,10,15,16-tetrahydroxy-10-oxido-2-sulfidooctahydro-12H-5,8-methanofuro[3,2-l][1,3,6,9,11,2,10]pentaoxadiphosphacyclotetradecin-7-yl]-1,9-dihydro-6H-purin-6-one]	24.9	123	3	–	–
Nc1nc2c(ncn2[C@@H]2O[C@@H]3COP(=O)(S)O[C@H]4[C@@H](O)[C@H](n5ccc6c(N)ncnc65)O[C@@H]4COP(=O)(O)O[C@@H]2[C@@H]3O)c(=O)[nH]1 (stereo partly drawn) [Example 43, 2-amino-9-[(5R,7R,8R,12aR,14R,15R,15aS,16R)-14-(4-amino-7H-pyrrolo[2,3-d]pyrimidin-7-yl)-10,15,16-trihydroxy-2,10-dioxido-2-sulfanyloctahydro-12H-5,8-methanofuro[3,2-l][1,3,6,9,11,2,10]pentaoxadiphosphacyclotetradecin-7-yl]-1,9-dihydro-6H-purin-6-one]	1020	130	162	–	–
Nc1nc2c(nnn2[C@@H]2O[C@@H]3COP(O)(=S)O[C@@H]4[C@@H](COP(O)(=S)O[C@@H]2[C@H]3F)O[C@@H](n2ccc3c(N)ncnc32)C4(F)F)c(=O)[nH]1 (stereo partly drawn) [Example 220, 5-amino-3-[(5R,7R,8S,12aR,14R,15aR,16S)-14-(4-amino-7H-pyrrolo[2,3-d]pyrimidin-7-yl)-15,15,16-trifluoro-2,10-dihydroxy-2,10-disulfidooctahydro-12H-5,8-methanofuro[3,2-l][1,3,6,9,11,2,10]pentaoxadiphosphacyclotetra-decin-7-yl]-3,6-dihydro-7H-[1,2,3]triazolo[4,5-d]pyrimidin-7-one]	–	6	–	–	inhibition at 20 µM (full-length WT STING; [2]): 29%
Nc1nc2c(ncn2[C@@H]2O[C@@H]3COP(=O)(O)O[C@H]4[C@H](Cl)[C@H](n5cnc6c(=O)[nH]cnc65)O[C@@H]4COP(=O)(O)O[C@@H]2[C@@H]3O)c(=O)[nH]1 [Example 322, 2-amino-9-[(5R,7R,8R,12aR,14R, 15S,15aR,16R)-15-chloro-2,10,16-trihydroxy-2,10-dioxido-14-(6-oxo-1,6-dihydro-9H-purin-9-yl)octahydro-12H-5,8-methanofuro[3,2-l][1,3,6,9,11,2,10]pentaoxadiphosphacyclotetradecin-7-yl]-1,9-dihydro-6H-purin-6-one]	–	–	68.8	41	–
Nc1nc2c(ncn2[C@@H]2O[C@@H]3COP(=O)(O)O[C@H]4C[C@H](n5cnc6c(=O)[nH]cnc65)O[C@@H]4COP(=O)(O)O[C@@H]2[C@@H]3F)c(=O)[nH]1 [Example 332, 2-amino-9-[(5R,7R,8S,12aR,14R,15aS,16R)-16-fluoro-2,10-dihydroxy-2,10-dioxido-14-(6-oxo-1,6-dihydro-9H-purin-9-yl)octahydro-12H-5,8-methanofuro[3,2-l][1,3,6,9,11,2,10]pentaoxadiphosphacy-clotetradecin-7-yl]-1,9-dihydro-6H-purin-6-one]	–	–	8.2	113	–
O=c1[nH]cnc2c1ncn2[C@@H]1O[C@@H]2COP(=O)(O)O[C@@H]3C[C@@H](COP(=O)(O)O[C@H]2[C@H]1O)O[C@H]3n1cnc2c(=O)[nH]cnc21 [Example 333]	–	–	45.9	10	–

Further lines, with some results ahead:

EC50 (full-length WT STING; [3]) [nM]	Compound	% Effect at 30 μM relative to 2′3′-cGAMP [1] [%]	EC50 (full-length HAQ STING) [nM]	% Effect at 30 μM relative to 2′3′-cGAMP [1, 4] [%]	further results
302	Nc1nc2c(ncn2[C@@H]2O[C@@H]3COP(=O)(S)O[C@H]4C[C@H](n5cc(F)c6c(N)ncnc65)O[C@@H]4COP(=O)(O)O[C@@H]2[C@@H]3F)c(=O)[nH]1 (stereo partly drawn) [Example 255, 2-amino-9-[(5R,7R,8S,12aR,14R,15aS,16R)-14-(4-amino-5-fluoro-7H-pyrrolo[2,3-d]pyrimidin-7-yl)-16-fluoro-10-hydroxy-2,10-dioxido-2-sulfanyloctahydro-12H-5,8-methanofuro[3,2-1][1,3,6,9,11,2,10]pentaoxadiphosphacyclo-tetradecin-7-yl]-1,9-dihydro-6H-purin-6-one]	–	–	49	–
93.5	Nc1nc2c(ncn2[C@@H]2O[C@@H]3COP(=O)(S)O[C@H]4C[C@H](n5cc(F)c6c(N)ncnc65)O[C@@H]4COP(=O)(O)O[C@@H]2[C@@H]3F)c(=O)[nH]1 (stereo partly drawn) [Example 256, 2-amino-9-[(5R,7R,8S,12aR,14R,15aS,16R)-14-(4-amino-5-fluoro-7H-pyrrolo[2,3-d]pyrimidin-7-yl)-16-fluoro-10-hydroxy-2,10-dioxido-2-sulfanyloctahydro-12H-5,8-methanofuro[3,2-1][1,3,6,9,11,2,10]pentaoxadiphosphacyclo-tetradecin-7-yl]-1,9-dihydro-6H-purin-6-one]	–	–	149	–
422	Nc1nc2c(ncn2[C@@H]2O[C@@H]3COP(=O)(S)O[C@H]4C[C@H](c5cnc6c(=O)[nH]cnn56)O[C@@H]4COP(=O)(S)O[C@@H]2[C@@H]3F)c(=O)[nH]1 (stereo partly drawn) [Example 336, 7-[(5R,7R,8S,12aR,14R,15aS,16R)-7-(2-amino-6-oxo-1,6-dihydro-9H-purin-9-yl)-16-fluoro-2,10-dioxido-2,10-disulfanyloctahydro-12H-5,8-methanofuro[3,2-l][1,3,6,9,11,2,10]pentaoxadiphosphacyclotetradecin-14-yl]imidazo[2,1-f][1,2,4]triazin-4(3H)-one]	–	–	85	–
